Laboratory results from the CheMixHub drug solubility set.

Assay: xn = mol fraction of the nth substance listed, in the solute-free solvent

c1ccc2c(c1)CCc1ccccc1N2 + OCCO + O
solubility (g/100 g solution)
Conditions	283.15 K	288.15 K	293.15 K	298.15 K	303.15 K	308.15 K	313.15 K	318.15 K	323.15 K	328.15 K
x2 = 0.03125	0.0117	0.0166	0.0228	0.032	0.0373	0.0524	0.0651	0.088	0.117	0.153
x2 = 0.06775	0.0425	0.0584	0.0728	0.0999	0.124	0.165	0.207	0.265	0.333	0.406
x2 = 0.1107	0.0709	0.0954	0.123	0.162	0.202	0.258	0.32	0.397	0.49	0.598
x2 = 0.1615	0.0799	0.106	0.135	0.174	0.214	0.272	0.331	0.404	0.491	0.593
x2 = 0.2258	0.0897	0.118	0.144	0.179	0.221	0.265	0.32	0.381	0.455	0.558
x2 = 0.3035	0.0971	0.123	0.148	0.178	0.215	0.256	0.304	0.359	0.421	0.515
x2 = 0.4027	0.107	0.131	0.154	0.184	0.223	0.261	0.313	0.359	0.402	0.47
x2 = 0.5389	0.114	0.14	0.166	0.197	0.232	0.272	0.308	0.353	0.401	0.458
x2 = 0.7239	0.117	0.139	0.167	0.197	0.231	0.263	0.296	0.329	0.366	0.411
